What was measured:
IRAK4 [1] = biological target: T1, IRAK4 (Homo sapiens, UniProt Q9NWZ3); assay: 2-hour 10 μM ATP Biochemical Assay (MesoScale Detection format; IRAK4 phosphorylation of biotin labeled IRAK1 activation loop peptide)
T1 sequence (Q9NWZ3 1-460): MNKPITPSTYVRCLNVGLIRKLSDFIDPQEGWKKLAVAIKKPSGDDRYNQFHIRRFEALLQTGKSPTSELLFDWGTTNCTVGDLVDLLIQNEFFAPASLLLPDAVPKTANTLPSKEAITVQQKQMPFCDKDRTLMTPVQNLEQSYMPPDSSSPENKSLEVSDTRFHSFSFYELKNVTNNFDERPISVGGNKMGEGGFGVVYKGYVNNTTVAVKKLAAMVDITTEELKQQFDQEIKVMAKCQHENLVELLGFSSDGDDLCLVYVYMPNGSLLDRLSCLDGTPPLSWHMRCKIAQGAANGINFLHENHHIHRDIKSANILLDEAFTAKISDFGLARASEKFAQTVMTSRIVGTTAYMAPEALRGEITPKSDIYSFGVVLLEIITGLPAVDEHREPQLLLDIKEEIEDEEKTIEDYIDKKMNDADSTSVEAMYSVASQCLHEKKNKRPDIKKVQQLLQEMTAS
Procedure, shortened: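 Electrochemiluminescent MSD readout: after streptavidin capture, phosphothreonine on the biotin-labelled IRAK1 activation-loop peptide detected by rabbit antibody and Sulfo-Tag secondary. Phosphorylation ran 2 h with 10 μM ATP before EDTA quench.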

IRAK4 [2] = biological target: T1, IRAK4; assay: 2-hour 1 mM ATP IRAK4 Biochemical assay (as above, but with 100 pM IRAK4 and 1 mM ATP); settings: IRAK4 MSD BIOCHEMICAL (1 mM ATP) IC50 (μM), 100 pM IRAK4, 2 hours
Procedure, shortened: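 MSD electrochemiluminescence read-out: biotinylated peptide product bound to streptavidin plates, probed with anti-P-Thr rabbit antibody and Sulfo-Tag goat anti-rabbit. Kinase reaction used 1 mM ATP and 100 pM IRAK4 over 2 hours before EDTA quench.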

[3] = IRAK4 MSD BIOCHEMICAL (10 μM ATP) IC50 (μM), 1 nM IRAK4, 2 hours

CCOc1cc2nc([C@]34CCOC[C@H]3C4)cn2cc1NC(=O)c1cccc(C(F)F)n1 (relative stereo) [Example 249, N-(2-((1S*,6R*)-3-oxabicyclo[4.1.0]heptan-6-yl)-7-ethoxyimidazo[1,2-a]pyridin-6-yl)-6-(difluoromethyl)picolinamide]
IC50 (IRAK4 [1]; [3]): 0.001 µM
IC50 (IRAK4 [2]): 0.001 µM

CCOc1cc2nc(C3C[C@@H](C)O[C@@H](C)C3)cn2cc1NC(=O)c1cccc(C(F)(F)F)n1 (relative stereo) [Example 250, N-(2-((2R*,6S*)-2,6-dimethyltetrahydro-2H-pyran-4-yl)-7-ethoxyimidazo[1,2-a]pyridin-6-yl)-6-(trifluoromethyl)picolinamide]
IC50 (IRAK4 [1]; [3]): 0.001 µM
IC50 (IRAK4 [2]): 0.001 µM

CCOc1cc2nc(C[C@H]3CCOC3)cn2cc1NC(=O)c1cccc(C(F)F)n1 (single isomer, unassigned) [Example 15]
IC50 (IRAK4 [1]; [3]): 0.001 µM
IC50 (IRAK4 [2]): 0.001 µM

CCOc1cc2nc(C[C@@H]3CCOC3)cn2cc1NC(=O)c1cccc(C(F)F)n1 (single isomer, unassigned) [Example 16]
IC50 (IRAK4 [1]; [3]): 0.001 µM
IC50 (IRAK4 [2]): 0.001 µM

CCOc1nc2nc(CC3CCOC3)cn2cc1NC(=O)c1cccc(C(F)(F)F)n1 (single isomer, unassigned) [Example 94]
IC50 (IRAK4 [1]; read-out: IRAK4 MSD BIOCHEMICAL (10 μM ATP) IC50, 1 nM IRAK4, 2 hours): 0.001 µM
IC50 (IRAK4 [2]): 0.004 µM

CCOc1nc2nc(CC3CCOC3)cn2cc1NC(=O)c1cccc(C(F)(F)F)n1 (single isomer, unassigned) [Example 95]
IC50 (IRAK4 [1]; [3]): 0.001 µM
IC50 (IRAK4 [2]): 0.003 µM

CCOc1cc2nc([C@H](C)[C@@H]3CCOC3)cn2cc1NC(=O)c1cccc(C(F)(F)F)n1 (single isomer, unassigned) [Example 138]
IC50 (IRAK4 [1]; [3]): 0.001 µM
IC50 (IRAK4 [2]): 0.001 µM

CCOc1cc2nc(C(C)C3CCOC3)cn2cc1NC(=O)c1cccc(C(F)(F)F)n1 (single isomer, unassigned) [Example 139]
IC50 (IRAK4 [1]; [3]): 0.001 µM
IC50 (IRAK4 [2]): 0.001 µM

CCOc1cc2nc([C@@H](C)[C@@H]3CCOC3)cn2cc1NC(=O)c1cccc(C(F)(F)F)n1 (single isomer, unassigned) [Example 140]
IC50 (IRAK4 [1]; [3]): 0.001 µM
IC50 (IRAK4 [2]): 0.001 µM

CCOc1cc2nc([C@H](C)[C@H]3CCOC3)cn2cc1NC(=O)c1cccc(C(F)(F)F)n1 (single isomer, unassigned) [Example 141]
IC50 (IRAK4 [1]; [3]): 0.001 µM
IC50 (IRAK4 [2]): 0.001 µM

CCOc1cc2nc([C@H](F)[C@@H]3CCOC3)cn2cc1NC(=O)c1cccc(C(F)(F)F)n1 (single isomer, unassigned) [Example 143]
IC50 (IRAK4 [1]; [3]): 0.001 µM
IC50 (IRAK4 [2]): 0.002 µM

CCOc1cc2nc(C(F)C3CCOC3)cn2cc1NC(=O)c1cccc(C(F)(F)F)n1 (single isomer, unassigned) [Example 144]
IC50 (IRAK4 [1]; [3]): 0.001 µM
IC50 (IRAK4 [2]): 0.001 µM

CCOc1cc2nc([C@@H](F)[C@@H]3CCOC3)cn2cc1NC(=O)c1cccc(C(F)(F)F)n1 (single isomer, unassigned) [Example 145]
IC50 (IRAK4 [1]; [3]): 0.001 µM
IC50 (IRAK4 [2]): 0.002 µM

CCOc1cc2nc([C@H](F)[C@H]3CCOC3)cn2cc1NC(=O)c1cccc(C(F)(F)F)n1 (single isomer, unassigned) [Example 146]
IC50 (IRAK4 [1]; [3]): 0.001 µM
IC50 (IRAK4 [2]): 0.001 µM

CC1(COc2cc3nc(C[C@@H]4CCOC4)cn3cc2NC(=O)c2cccc(C(F)(F)F)n2)COC1 (single isomer, unassigned) [Example 164]
IC50 (IRAK4 [1]; [3]): 0.003 µM
IC50 (IRAK4 [2]): 0.005 µM

CC1(COc2cc3nc(C[C@H]4CCOC4)cn3cc2NC(=O)c2cccc(C(F)(F)F)n2)COC1 (single isomer, unassigned) [Example 165]
IC50 (IRAK4 [1]; [3]): 0.002 µM
IC50 (IRAK4 [2]): 0.006 µM

CCOc1cc2nc([C@@H](O)C3CC3)cn2cc1NC(=O)c1cccc(C(F)(F)F)n1 (single isomer, unassigned) [Example 169]
IC50 (IRAK4 [1]; [3]): 0.003 µM
IC50 (IRAK4 [2]): 0.009 µM

CCOc1cc2nc([C@H](O)C3CC3)cn2cc1NC(=O)c1cccc(C(F)(F)F)n1 (single isomer, unassigned) [Example 170]
IC50 (IRAK4 [1]; [3]): 0.004 µM
IC50 (IRAK4 [2]): 0.012 µM

From US20220089592A1, “IMIDAZO[1,2-A]PYRIDINYL DERIVATIVES AS IRAK4 INHIBITORS” (priority 2019, published 2022)
